Test results as given in PubChem BioAssay (NCI).
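Dose response: 5 concentrations. Exposure: 48 h. Format: 96-well plates. Endpoint: linear interpolation; highest concentration if not reached. TGI denotes the concentration required for complete inhibition of growth.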

Key:
Experiment in all cases: NCI-60 cell line screen, 48 h
PC-3 prostate = test system: PC-3 prostate
CAKI-1 renal = test system: CAKI-1 renal
SK-MEL-28 melanoma = test system: SK-MEL-28 melanoma
MDA-MB-231 breast = test system: MDA-MB-231 breast
MDA-N = test system: MDA-N
SNB-19 CNS = test system: SNB-19 CNS
NCI-H522 lung = test system: NCI-H522 lung
HCT-15 colon = test system: HCT-15 colon
UACC-257 melanoma = test system: UACC-257 melanoma
HCT-116 colon = test system: HCT-116 colon
SF-268 CNS = test system: SF-268 CNS
A498 renal = test system: A498 renal
SK-OV-3 ovarian = test system: SK-OV-3 ovarian
SF-539 CNS = test system: SF-539 CNS
HT29 colon = test system: HT29 colon
NCI-H226 lung = test system: NCI-H226 lung
NCI-H23 lung = test system: NCI-H23 lung
SN12C renal = test system: SN12C renal
HCC-2998 colon = test system: HCC-2998 colon
HOP-62 NSCLC = test system: HOP-62 NSCLC
A549 NSCLC = test system: A549 NSCLC
HS 578T breast = test system: HS 578T breast
RXF 393 renal = test system: RXF 393 renal
786-0 renal = test system: 786-0 renal
MOLT-4 leukemia = test system: MOLT-4 leukemia
NCI/ADR-RES ovarian = test system: NCI/ADR-RES ovarian
HL-60(TB) leukemia = test system: HL-60(TB) leukemia
CCRF-CEM leukemia = test system: CCRF-CEM leukemia
OVCAR-5 ovarian = test system: OVCAR-5 ovarian
SK-MEL-5 melanoma = test system: SK-MEL-5 melanoma
UO-31 renal = test system: UO-31 renal
KM12 colon = test system: KM12 colon
DU-145 prostate = test system: DU-145 prostate
NCI-H460 lung = test system: NCI-H460 lung
OVCAR-8 ovarian = test system: OVCAR-8 ovarian
U251 CNS = test system: U251 CNS
IGROV1 ovarian = test system: IGROV1 ovarian
SW-620 colon = test system: SW-620 colon
BT-549 breast = test system: BT-549 breast
HOP-92 NSCLC = test system: HOP-92 NSCLC
SNB-75 CNS = test system: SNB-75 CNS
ACHN renal = test system: ACHN renal
K-562 leukemia = test system: K-562 leukemia
TK-10 renal = test system: TK-10 renal
OVCAR-3 ovarian = test system: OVCAR-3 ovarian
UACC-62 melanoma = test system: UACC-62 melanoma
SF-295 CNS = test system: SF-295 CNS
SK-MEL-2 melanoma = test system: SK-MEL-2 melanoma
MCF7 breast = test system: MCF7 breast
EKVX NSCLC = test system: EKVX NSCLC
COLO 205 colon = test system: COLO 205 colon
LOX IMVI melanoma = test system: LOX IMVI melanoma
MALME-3M melanoma = test system: MALME-3M melanoma
T-47D breast = test system: T-47D breast
OVCAR-4 ovarian = test system: OVCAR-4 ovarian
M14 melanoma = test system: M14 melanoma

Q: How did the TGI (PC-3 prostate) turn out when `Cc1ccc2c(=O)cc(-c3ccsc3)[nH]c2n1` was run?
A: > 61.9 µM

Q: And the TGI (CAKI-1 renal)?
A: > 100 µM

Q: And the TGI (SK-MEL-28 melanoma)?
A: > 100 µM

Q: What about the TGI (MDA-MB-231 breast) of the same molecule?
A: > 87.6 µM

Q: What about the TGI (MDA-N) of the same molecule?
A: 2090 nM

Q: What about the TGI (SNB-19 CNS) of the same molecule?
A: 86.7 µM

Q: And the TGI (NCI-H522 lung)?
A: > 27.3 µM

Q: What about the TGI (HCT-15 colon) of the same molecule?
A: > 62.9 µM

Q: What about the TGI (UACC-257 melanoma) of the same molecule?
A: > 100 µM

Q: What about the TGI (HCT-116 colon) of the same molecule?
A: > 75.6 µM

Q: What about the TGI (SF-268 CNS) of the same molecule?
A: > 100 µM

Q: And the TGI (A498 renal)?
A: > 100 µM

Q: What about the TGI (SK-OV-3 ovarian) of the same molecule?
A: 72.6 µM

Q: And the TGI (SF-539 CNS)?
A: 33.2 µM

Q: What about the TGI (HT29 colon) of the same molecule?
A: > 100 µM

Q: What about the TGI (NCI-H226 lung) of the same molecule?
A: 56.8 µM

Q: And the TGI (NCI-H23 lung)?
A: > 25.2 µM

Q: What about the TGI (SN12C renal) of the same molecule?
A: > 86.2 µM

Q: What about the TGI (HCC-2998 colon) of the same molecule?
A: 42.9 µM

Q: What about the TGI (HOP-62 NSCLC) of the same molecule?
A: > 100 µM

Q: What about the TGI (A549 NSCLC) of the same molecule?
A: > 44.7 µM

Q: What about the TGI (HS 578T breast) of the same molecule?
A: 26.2 µM

Q: And the TGI (RXF 393 renal)?
A: > 31 µM

Q: And the TGI (786-0 renal)?
A: > 100 µM

Q: What about the TGI (MOLT-4 leukemia) of the same molecule?
A: > 30.7 µM

Q: And the TGI (NCI/ADR-RES ovarian)?
A: > 20.5 µM

Q: What about the TGI (HL-60(TB) leukemia) of the same molecule?
A: 20.2 µM

Q: What about the TGI (CCRF-CEM leukemia) of the same molecule?
A: > 83 µM

Q: What about the TGI (OVCAR-5 ovarian) of the same molecule?
A: > 100 µM

Q: What about the TGI (SK-MEL-5 melanoma) of the same molecule?
A: > 28.5 µM

Q: What about the TGI (UO-31 renal) of the same molecule?
A: 9.47 µM

Q: What about the TGI (KM12 colon) of the same molecule?
A: > 100 µM

Q: What about the TGI (DU-145 prostate) of the same molecule?
A: > 89.8 µM

Q: What about the TGI (NCI-H460 lung) of the same molecule?
A: > 100 µM

Q: And the TGI (OVCAR-8 ovarian)?
A: > 100 µM

Q: What about the TGI (U251 CNS) of the same molecule?
A: > 55.2 µM

Q: What about the TGI (IGROV1 ovarian) of the same molecule?
A: > 100 µM

Q: And the TGI (SW-620 colon)?
A: > 21.1 µM

Q: What about the TGI (BT-549 breast) of the same molecule?
A: > 100 µM

Q: And the TGI (HOP-92 NSCLC)?
A: > 100 µM

Q: What about the TGI (SNB-75 CNS) of the same molecule?
A: 35 µM

Q: What about the TGI (ACHN renal) of the same molecule?
A: > 100 µM

Q: What about the TGI (K-562 leukemia) of the same molecule?
A: > 100 µM

Q: And the TGI (TK-10 renal)?
A: > 100 µM

Q: What about the TGI (OVCAR-3 ovarian) of the same molecule?
A: > 100 µM

Q: What about the TGI (UACC-62 melanoma) of the same molecule?
A: > 100 µM

Q: And the TGI (SF-295 CNS)?
A: 23.6 µM

Q: And the TGI (SK-MEL-2 melanoma)?
A: > 30.6 µM

Q: What about the TGI (MCF7 breast) of the same molecule?
A: > 100 µM

Q: What about the TGI (EKVX NSCLC) of the same molecule?
A: > 100 µM

Q: And the TGI (COLO 205 colon)?
A: 12.8 µM

Q: What about the TGI (LOX IMVI melanoma) of the same molecule?
A: > 56.6 µM

Q: What about the TGI (MALME-3M melanoma) of the same molecule?
A: > 100 µM

Q: What about the TGI (T-47D breast) of the same molecule?
A: > 74.9 µM

Q: What about the TGI (OVCAR-4 ovarian) of the same molecule?
A: > 100 µM

Q: And the TGI (M14 melanoma)?
A: > 58.1 µM
